Reference: patent US10131691B2, “Compositions and methods for specific regulation of pyruvate dehydrogenase kinase” (THE BOARD OF TRUSTEES OF THE LELAND STANFORD JUNIOR …, priority 2011, dated 2018)
No end group written: not given here.

Experiments:
[1] = target: T1, εPKC (Homo sapiens, UniProt Q02156); experiment: Proteinase K sensitivity of εPKC; assay type: binding
T1 sequence (Q02156 1-737): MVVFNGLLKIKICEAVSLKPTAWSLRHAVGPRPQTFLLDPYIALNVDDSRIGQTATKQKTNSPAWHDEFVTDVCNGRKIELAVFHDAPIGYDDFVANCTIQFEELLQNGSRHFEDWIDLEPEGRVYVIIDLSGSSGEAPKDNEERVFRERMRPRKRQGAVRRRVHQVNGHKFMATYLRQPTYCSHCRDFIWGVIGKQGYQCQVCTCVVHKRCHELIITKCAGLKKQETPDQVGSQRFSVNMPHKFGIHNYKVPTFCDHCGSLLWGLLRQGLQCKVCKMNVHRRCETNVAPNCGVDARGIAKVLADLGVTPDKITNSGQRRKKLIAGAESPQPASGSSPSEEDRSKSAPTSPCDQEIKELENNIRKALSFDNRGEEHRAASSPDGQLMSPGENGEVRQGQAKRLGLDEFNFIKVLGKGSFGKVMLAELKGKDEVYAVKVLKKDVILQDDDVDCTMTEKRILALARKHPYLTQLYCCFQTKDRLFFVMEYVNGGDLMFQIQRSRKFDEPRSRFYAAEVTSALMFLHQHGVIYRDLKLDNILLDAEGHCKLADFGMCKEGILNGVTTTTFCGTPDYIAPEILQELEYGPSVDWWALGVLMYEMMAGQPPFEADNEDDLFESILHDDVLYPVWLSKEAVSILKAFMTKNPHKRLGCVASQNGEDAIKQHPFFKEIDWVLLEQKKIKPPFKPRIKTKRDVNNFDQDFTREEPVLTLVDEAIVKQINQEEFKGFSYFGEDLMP

[2] = tested on: hearts subjected to I/R; experiment: Ex vivo cardiac protection from ischemia/reperfusion (Langendorff; infarct size, CPK release); design: species or system rat
Experimental: (§1) An ex vivo model of acute ischemic heart damage was used, which involves a 30 min equilibration period, followed by 30 min of global ischemia, which in turn is followed by 60 min of reperfusion. The hearts were perfused with 1 μM TAT or TAT-conjugated peptide. Normoxic control hearts were subjected to 90 min perfusion in the absence of ischemia. Coronary effluent was collected to determine creatine phosphokinase (CPK) release during the first 30 min of the reperfusion period. At the end of the reperfusion period, hearts were sliced into 1-mm-thick transverse sections and incubated in triphenyltetrazolium chloride solution (TTC, 1% in phosphate buffer, pH 7.4) at 37° C. for 15 min. Infarct size was expressed as a percentage of the risk zone (equivalent to total LV muscle mass) (methods described in Brandman et al., 2007, J. Biol. Chem., 282:4113-4123; Inagaki et al., 2003, Circulation, 108:869-875). […]
First, I/R-induced infarct size after treatment with ΨPDK or δV1-1 (Inagaki et al., 2003, Circulation, 108:869-875), was smaller than that in hearts treated with the control peptide or with ΨδRACK, the δPKC-specific activator or with δV1-5 (FIG. 6A). Second, similar data were obtained when determining the levels of released creatine phosphokinase (CPK), as a marker of myocardial infarction; CPK levels in the ΨPDK- or δV1-1-treated hearts were similar and were lower than those after treatment with control peptide, ΨδRACK or δV1-5 (FIG. 6B).
To begin determining the contribution of each of the amino acids on the effect of the peptide, Alanine scanning was used (Brunel et al., 2006, J. Virol., 80:1680-1687; Chen et al., J. Pep. Res., 2000, 56:147-156; Brems et al., 1992, Prot. Eng., 5:527-533) (substituting individual amino acid with an alanine). The resultant ΨPDK peptide analogs were then used in the same model of myocardial infarction, using CPK release and JNK phosphorylation as markers for cardiac injury. CPI release into the perfusates and pJNK in the hearts were determined after I/R in the presence of respective peptides and compared to the levels in hearts subjected to I/R in the presence of the control peptide. None of the peptides having a substitution had any significant biological activity (Table 1).

[3] = tested on: PDK2; experiment: 2-D IEF phosphorylation of PDK2 in hearts after I/R; design: species or system rat; conditions: cardiac I/R
Experimental: as §1
As described above, δPKC phosphorylation of PDK following cardiac ischemia and reperfusion leads to the phosphorylation and a decline in the activity of pyruvate dehydrogenase (PDH) (Churchill et al., 2005, Circ. Res., 97:78-85). […] Since ΨPDK is derived from the PDK homologous sequence in δPKC, it was next determined whether PDK phosphorylation is affected by ΨPDK treatment.

[4] = ex vivo I/R, vs control peptide, ΨδRACK or δV1-5

## ALSTER (not fully specified (C-terminus); also: TAT47-57 conjugated via disulfide) [ΨPDK, for cells and hearts conjugated to TAT47-57 via disulfide bond]
[1]
  sensitivity of εPKC to proteolysis by PK: unaffected
[2]; CPK release and JNK phosphorylation as markers
  cardioprotection / biological activity in ex vivo I/R model (in words): exert cardio-protective effects
[2]; ex vivo I/R, release into perfusate, 1 μM peptide
  CPK (u/L): 335 ± 520 u/L
[2]; [4]
  CPK levels (in words): lower
  I/R-induced infarct size: smaller
[3]
  phosphorylation of PDK2: did not occur
